According to patent publication US9951335B2, “Compositions and methods for treating otitis media and other conditions with inhibitors of CYLD” (Georgia State University Research Foundation, Inc., priority 2012, dated 2018):
Like-named read-outs stand apart in the source and are kept apart here. Residues, ends and D or L forms follow the SMILES beside them. *: point of attachment. Cbz = O=C(OCc1ccccc1)*

Tests used:
Smad3 [1] = assay: Smad3 protein expression in cells incubated with Akt or PI3K inhibitor (immunoblotting); format: cell-based, mouse; settings: 20 μM; MEF cells from Cyld+/+ and Cyld−/− mice (FIG. 5d), cells (FIG. 5e)
Description: FIG. 5 illustrates that CYLD decreases Smad3 stability by inhibiting Akt. (a) MEF cells from Cyld+/+ and Cyld−/− mice were transfected with siCon or siAkt1/2 and analysed by immunoblotting with the indicated antibodies. (b) SBE-promoter activity was determined in siCYLD-transfected A549 cells with or without siAkt co-transfection and stimulated with TGF-β. (c) SBE-promoter activity was determined in MEFs from Cyld+/+ and Cyld−/− mice pretreated with Akt inhibitor and stimulated with TGF-β. (d) MEF cells from Cyld+/+ and Cyld−/− mice were incubated with Akt inhibitor (20 μM), and cell lysates were analysed by immunoblotting with the indicated antibodies. (e) Cells were incubated with Akt inhibitor (20 μM) or LY294002 (20 μM), and cell lysates were analysed by immunoblotting with the indicated antibodies. (f) Lysates from cells transfected with HA-CYLD and Flag-Akt were immunoprecipitated with anti-CYLD antibody (upper panel) or anti-Akt antibody (lower panel), and interacting proteins were analysed by immunoblotting. […]
Western blot, immunoprecipitation and ubiquitination experiments were performed as follows. […] Immunoprecipitates were then suspended in a sample buffer, separated on 8% SDS-PAGE, transferred to polyvinylidine difluoride membrane, and detected by immunoblot analysis, as described above. […]

TGF-β-signalling = assay: TGF-β-induced SBE-promoter activity in mouse MEF cells; format: cell-based; settings: Cyld−/− MEFs pretreated with inhibitor
Description: (§1) The expression plasmids Flag-WT-CYLD, HA-WT-CYLD, Flag-H/N-CYLD, HA-C/S-CYLD, Flag-WT-Smad3, C/A-TβRI, and the reporter plasmids SBE-Luc, PAI-1-Luc, and NF-κB-Luc were previously described. Flag-WT-Akt1, pRK5-HA-Ub WT, pRK5-HA-Ub K63, and pRK5-HA-Ub K48 were from Addgene, and K to R mutants of Akt were generated with WT-Akt1 using QuickChange XL Site-Directed Mutagenesis kit (Stratagene). All transient transfections were carried out using TransIT-LT1 reagent (Minis) or Lipofectamine (Invitrogen) according to manufacturers' instructions.

Smad3 [2] = assay: Smad3 protein level in transfected cells by immunoblotting; format: cell-based, human
Description: Western blot, immunoprecipitation and ubiquitination experiments were performed as follows. Western blots were performed using whole-cell extracts, separated on 8 or 10% SDS-PAGE gels, and transferred to polyvinylidine di& uoride membranes. The membrane was blocked with a solution of PBS containing 0.1% Tween 20 (PBS-T) and 5% BSA. The membrane was then incubated in a 1:2,000 dilution of a primary antibody in 5% BSA-PBS-T. After three washes in PBS-T, the membrane was incubated with 1:5,000 dilution of the corresponding secondary antibody in 3% non-fact skim milk-PBS-T. Respective proteins were visualized by using enhanced chemiluminescence detection reagents, according to the manufacturer's instructions. To conduct immunoprecipitation analysis, cell lysates were incubated with 1 μg of primary antibodies overnight, at 4° C., followed by 2-h incubation with protein A/G-agarose beads (Invitrogen). Immunoprecipitates were then suspended in a sample buffer, separated on 8% SDS-PAGE, transferred to polyvinylidine difluoride membrane, and detected by immunoblot analysis, as described above. […]

PAI-1 = assay: TGF-β-induced PAI-1 expression (promoter activity, mRNA) in human cells; format: cell-based; settings: WT-CYLD-transfected cells pre-treated with MG-132; mRNA
Description: Total RNA was isolated using TRIzol reagent following the manufacturer's instructions. Synthesis of complementary DNA from total RNA was performed with MultiScribe reverse transcriptase. Real-time quantitative PCR was performed using an ABI 7500 Sequence Detection System (Applied Biosystems). Relative quantities of mRNAs were calculated using the comparative threshold cycle method and normalized using human and mouse glyceraldehyde-3-phosphate dehydrogenase as an endogenous control. The primer sequences for mouse COL1A2, COL3A1, CTGF and PAI-1, and human PAI-1, CHIP, and Smad3 are as follows. Mouse CTGF: 5′-[…]-3′ (SEQ ID NO:1) and 5′-[…]-3′ (SEQ ID NO:2); mouse COL1A2: 5′-[…]-3′ (SEQ ID NO:3) and 5′-[…]-3′ (SEQ ID NO:4); mouse COL3A1: 5′-[…]-3′ (SEQ ID NO:5) and 5′-[…]-3′ (SEQ ID NO:6); mouse PAI-1: 5′-[…]-3′ (SEQ ID NO:7) and 5′-[…]-3′ (SEQ ID NO:8); human PAI-1: 5′-[…]-3′ (SEQ ID NO:9) and 5′-[…]-3′ (SEQ ID NO:10); human CHIP: 5′-[…]-3′ (SEQ ID NO:11) and 5′-[…]-3′ (SEQ ID NO:12).
as §1

CYLD [3] = assay: NTHi-induced up-regulation of CYLD in epithelial cells (Q-PCR, Western blot); format: cell-based, human; settings: for NTHi-induced up-regulation of CYLD at both mRNA and protein levels: HMEEC, A549 and primary NHBE cells, conventional and air-liquid-interface culture
Description: (§2) Phosphodiesterases (PDEs) have been recognized as therapeutic targets. […] For this reason, we initially sought to determine if PDEs act as key negative regulator for CYLD.

lung fibrosis = assay: S. pneumoniae-induced lung fibrosis in Cyld−/− mice (H&E, Masson's trichrome); format: in vivo, mouse
Description: Cyld−/− mice were generated by homologous recombination as follows. The targeting construct was designed to disrupt the exons 2 and 3 with an IRES-LacZ/MC1-Neo cassette. The targeting plasmid was linearized and transfected into embryonic stem cells of a 129/S. Homologously recombined embryonic stem cells were injected into blastocysts that were subsequently transferred to foster mothers, to generate chimeric progeny. Generated chimeric progeny were backcrossed to C57BL/6J, and germline transmission was confirmed by PCR with tail DNA. Homozygous knockout of Cyld gene was confirmed by mRNA detection by RT-PCR and CYLD protein detection by western blot analysis in MEF cells and lung tissues. For S. pneumoniae-induced severe infections in WT and Cyld−/− mice, anaesthetized mice were intratracheally (i.t.) inoculated with live S. pneumoniae (5×10^7 CFU per mouse). Surviving mice from severe pneumonia were then sacrificed 2 weeks post S. pneumoniae infection for histopathological analysis. For TGF-β inoculation, anesthetized WT and Cyld−/− mice were i.t. inoculated with TGF-β (25-100 ng per mouse) for 6 hours, and lung tissues were then subjected to total mRNA and protein extraction. […]

PDE4B / PDE4D = settings: known property, cited from earlier work
[4] = system: NTHi-induced inflammation; assay: NTHi-induced inflammation in epithelial cells (NF-κB activation, IL-1β, IL-8, TNF-α; Q-PCR, ELISA); format: cell-based, human; settings: for NTHi-induced inflammatory response / concentration at which NTHi-induced inflammatory response was suppressed: HMEEC cell; for NTHi-induced inflammatory response: roflumilast at 1 μM
Description: We next determined if PDE4 inhibition suppresses NTHi-induced inflammation. […] Despite showing that inhibiting PDE4 enhanced up-regulation of CYLD and suppressed NTHi-induced inflammation, it was still unclear whether inhibiting PDE4 suppressed inflammation by up-regulating CYLD or by inhibiting a positive regulator of inflammation (e.g., IKKβ).

CYLD [5] = assay: CYLD up-regulation in the middle ear of mouse OM model (Q-PCR, IF staining); format: in vivo
Description: as §2
Ototopical administration works effectively when the eardrum is perforated either pathologically or surgically by tympanostomy tube insertion. Thus, we first determined if ototopical administration of rolipram up-regulates CYLD and suppresses inflammation in the middle ear of mice post NTHi inoculation.

NF-κB = NF-κB activation induced by overexpressing constitutively active IKKβ or wild-type p65; format: cell-based
Description: We next determined if PDE4 inhibitors may also suppress inflammation via directly inhibiting IKKβ, the key positive regulator of NF-κB-dependent inflammation.

[6] = system: NTHi-induced inflammation; assay: NTHi-induced middle ear inflammation in mouse OM model (cytokines, otoscopy, histopathology); format: in vivo
[7] = ototopical pre- and post-inoculation administration, mouse OM model

Structure (SMILES): CCCCCCCCCCCCCCCCCCOCC(COC(=O)OC1C(O)C(O)C(O)C(CO)C1O)OC [Akt inhibitor, 1L6-Hydroxymethyl-chiro-inositol-2(R)-2-O-methyl-3-O-octadecyl-sn-glycerocarbonate]
- Smad3 protein expression (Smad3 [1]): markedly reduced
- enhanced TGF-β-induced SBE promoter activity (TGF-β-signalling): inhibited

Structure (SMILES): CC(C)C[C@@H](C=O)NC(=O)[C@H](CC(C)C)NC(=O)[C@H](CC(C)C)NC(=O)OCc1ccccc1 [MG132] (Cbz-Leu-Leu-Leu-aldehyde)
- WT-CYLD-induced decrease in Smad3 protein level (Smad3 [2]; WT-CYLD-transfected cells, 20 μM): reversed
- WT-CYLD-induced decrease in TGF-β-induced PAI-1 expression (PAI-1): reversed

Structure (SMILES): CCCCOc1cc(CC2CNC(=O)N2)ccc1OC (centres unmarked) [Ro20-1724]
- NTHi-induced up-regulation of CYLD at both mRNA and protein levels (CYLD [3]): markedly enhanced

Structure (SMILES): C[S+]([O-])c1ccc(-c2nc(-c3ccc(F)cc3)c(-c3ccncc3)[nH]2)cc1 (centres unmarked) [SB203580]
- lung fibrosis in Cyld−/− mice (lung fibrosis; S. pneumoniae infection, 20 mg kg−1 intraperitoneal 1-2 hours before inoculation): did not affect

Structure (SMILES): Cn1cc(C2=C(c3ccc(Cl)cc3Cl)C(=O)NC2=O)c2ccccc21 [SB216763]
- WT-CYLD-induced Smad3 decrease (Smad3 [2]; A549 cells, 5 μM for 12 h): reversed

Structure (SMILES): NC(=O)c1ccc(-c2nc(-c3ccccn3)c(-c3ccc4c(c3)OCO4)[nH]2)cc1 [SB431542]
- lung fibrosis in S. pneumoniae-inoculated Cyld−/− lungs (lung fibrosis; 10 mg per kg body weight intraperitoneal, 2-weeks post infection): inhibited

Structure (SMILES): COc1ccc([C@]2(C#N)CC[C@@H](C(=O)O)CC2)cc1OC1CCCC1 [cilomilast]
- PDE4 subfamily selectivity (PDE4B versus PDE4D) (PDE4B / PDE4D): more PDE4D selective
- NTHi-induced inflammatory response [4]: no significant inhibitory effect

Structure (SMILES): O=C(Nc1c(Cl)cncc1Cl)c1ccc(OC(F)F)c(OCC2CC2)c1 [roflumilast]
- CYLD expression (CYLD [3]): enhanced
- PDE4 subfamily selectivity (PDE4B versus PDE4D) (PDE4B / PDE4D): more selective for PDE4B than for PDE4D
- PDE4 subfamily selectivity (PDE4B versus PDE4D) (PDE4B / PDE4D; listed as Roflumilast): more specific inhibitor for PDE4B
- concentration at which NTHi-induced inflammatory response was suppressed [4]: 1 µM
- NTHi-induced inflammatory response [4]: markedly suppressed

Structure (SMILES): COc1ccc(C2CNC(=O)C2)cc1OC1CCCC1 (centres unmarked) [rolipram]
- up-regulation of CYLD at the mRNA level and protein level in the middle ear mucosa (CYLD [5]; mouse model of OM, Q-PCR and IF staining): enhanced
- CYLD expression in the middle ear (CYLD [5]; [7]): up-regulated
- activation of NF-κB induced by overexpressing constitutively active IKKβ or wild-type p65 (NF-κB): did not significantly inhibit
- NTHi-induced up-regulation of CYLD at both mRNA and protein levels (CYLD [3]): markedly enhanced
- NTHi-induced otoscopic pathological changes of OM (congestion and swelling of tympanic membranes, mucous effusion) ([6]; i.p. administration, NTHi-inoculated mice, otoscopic examination): inhibited
- middle ear mucosal thickening and PMN infiltration in the middle ear mucosa ([6]; i.p. administration, histopathologic analysis): inhibited
- NTHi-induced up-regulation of IL-1β and MIP-2, middle ear mucosal thickening and PMN infiltration ([6]; i.p. administration, mouse OM model, CYLD-deficiency context): no longer inhibited
- NTHi-induced up-regulation of the proinflammatory mediators in the middle ear of mouse ([6]; mouse): inhibited
- middle ear inflammation [6, 7]: suppressed
- NTHi-induced mRNA expression of these cytokines in CYLD-deficient cells ([4]; CYLD-deficient cells): failed to inhibit
- concentration at which NTHi-induced inflammatory response was suppressed [4]: 10 µM
- NTHi-induced NF-κB activation ([4]; HMEEC, A549, primary NHBE cells): potently inhibited
- NTHi-induced up-regulation of IL-1β, IL-8 and TNF-α in CYLD-depleted cells ([4]; HMEEC, A549, primary NHBE cells, CYLD depleted with siRNA CYLD): no longer inhibited
- NTHi-induced up-regulation of pro-inflammatory mediators IL-1β, IL-8 and TNF-α at the mRNA and protein levels ([4]; HMEEC, A549, primary NHBE cells, Q-PCR and ELISA): potently inhibited
